ChEMBL document CHEMBL1201862, “PubChem BioAssay data set” (2004)
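Assay format: 96-well plates, 48-hour exposure. GI50 is the concentration that inhibits growth by half.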 Activity calls are given as the source filed them. No stated cut-off is given here; in the data, active = GI50 up to about 1.1 µM and inactive = higher.

Tests used:
Test in all cases: NCI-60 cell line screen, 48 h
UACC-62 = test system: UACC-62
SF-539 = test system: SF-539
NCI-H23 = test system: NCI-H23
BT-549 = test system: BT-549
ACHN = test system: ACHN
SN12C = test system: SN12C
HCT-116 = test system: HCT-116
K562 = test system: K562
EKVX = test system: EKVX
LOX IMVI = test system: LOX IMVI
TK-10 = test system: TK-10
MOLT-4 = test system: MOLT-4
SK-OV-3 = test system: SK-OV-3
OVCAR-4 = test system: OVCAR-4
SW-620 = test system: SW-620
CAKI-1 = test system: CAKI-1
MDA-N = test system: MDA-N
SK-MEL-28 = test system: SK-MEL-28
COLO 205 = test system: COLO 205
HOP-92 = test system: HOP-92

| SMILES | GI50 (UACC-62) | GI50 (SF-539) | GI50 (NCI-H23) | GI50 (BT-549) | GI50 (ACHN) | GI50 (SN12C) | GI50 (HCT-116) | GI50 (K562) | GI50 (EKVX) | GI50 (LOX IMVI) | GI50 (TK-10) | GI50 (MOLT-4) | GI50 (SK-OV-3) | GI50 (OVCAR-4) | GI50 (SW-620) | GI50 (CAKI-1) | GI50 (MDA-N) | GI50 (SK-MEL-28) | GI50 (COLO 205) | GI50 (HOP-92) |
| --- | --- | --- | --- | --- | --- | --- | --- | --- | --- | --- | --- | --- | --- | --- | --- | --- | --- | --- | --- | --- |
| CN1CC(c2ccccc2)=CC2=C1C=CC(=N)/C2=N\N | > 100 µM (inactive) | > 100 µM (inactive) | > 100 µM (inactive) | 52.2 µM (inactive) | > 100 µM (inactive) | > 100 µM (inactive) | > 100 µM (inactive) | > 100 µM (inactive) | > 100 µM (inactive) | > 100 µM (inactive) | > 100 µM (inactive) | > 100 µM (inactive) | > 100 µM (inactive) | > 100 µM (inactive) | > 100 µM (inactive) | 5.46 µM (inactive) | > 100 µM (inactive) | > 100 µM (inactive) | – | – |
| O=C(O)CCCOc1cc(-c2ccccc2F)nc2cc3c(cc12)OCO3 | 6.17 µM (inactive) | 3.4 µM (inactive) | 44.9 µM (inactive) | 29.8 µM (inactive) | – | 19.3 µM (inactive) | – | – | > 100 µM (inactive) | 4.51 µM (inactive) | > 100 µM (inactive) | 5.9 µM (inactive) | 6.11 µM (inactive) | 45.9 µM (inactive) | 6.07 µM (inactive) | 9.64 µM (inactive) | 1.72 µM (inactive) | 7.89 µM (inactive) | 3.47 µM (inactive) | 13 µM (inactive) |
| Cn1c(=O)c2c(nc3n(Cc4ccccc4)c(=O)c(NCCBr)cn23)n(C)c1=O | 26.5 µM (inactive) | – | 40.4 µM (inactive) | 28.4 µM (inactive) | 15.4 µM (inactive) | 32.6 µM (inactive) | 28.8 µM (inactive) | 46 µM (inactive) | 18.5 µM (inactive) | 28.4 µM (inactive) | 16.3 µM (inactive) | 45.6 µM (inactive) | 25.3 µM (inactive) | 16.3 µM (inactive) | 90.6 µM (inactive) | 18.5 µM (inactive) | 57.3 µM (inactive) | 53.5 µM (inactive) | 49.1 µM (inactive) | 12 µM (inactive) |
| COC(=O)/C=C(\S/C=C(/c1ccccc1)N1CCn2c(C(=O)c3ccccc3)c(C(=O)OC)c(C(=O)OC)c21)C(=O)OC | > 10 µM (inactive) | 2.29 µM (inactive) | 3.3 µM (inactive) | 3.83 µM (inactive) | 3.34 µM (inactive) | 5.05 µM (inactive) | 2.34 µM (inactive) | 3.53 µM (inactive) | > 10 µM (inactive) | 1.47 µM (inactive) | 2.63 µM (inactive) | 1.79 µM (inactive) | > 10 µM (inactive) | 2.81 µM (inactive) | 0.565 µM (active) | 4.04 µM (inactive) | > 10 µM (inactive) | – | 1.99 µM (inactive) | 1.23 µM (inactive) |
| Cc1ccsc1/C=N/Nc1ccccn1 | 74 µM (inactive) | – | 70.6 µM (inactive) | > 100 µM (inactive) | 74.6 µM (inactive) | > 100 µM (inactive) | 43.8 µM (inactive) | 43.1 µM (inactive) | 15.2 µM (inactive) | 37.2 µM (inactive) | 57.3 µM (inactive) | 32.8 µM (inactive) | > 100 µM (inactive) | 76.2 µM (inactive) | 74.3 µM (inactive) | > 100 µM (inactive) | 50.6 µM (inactive) | 98.6 µM (inactive) | 71.1 µM (inactive) | 49.3 µM (inactive) |
| N=c1nc(N)nc(N)n1-c1ccc(S(N)(=O)=O)cc1 | > 100 µM (inactive) | – | > 100 µM (inactive) | > 100 µM (inactive) | > 100 µM (inactive) | > 100 µM (inactive) | > 100 µM (inactive) | > 100 µM (inactive) | > 100 µM (inactive) | > 100 µM (inactive) | > 100 µM (inactive) | > 100 µM (inactive) | – | > 100 µM (inactive) | > 100 µM (inactive) | > 100 µM (inactive) | > 100 µM (inactive) | > 100 µM (inactive) | – | > 100 µM (inactive) |
| O=C1CCCCCCCCCCC1CN(Cc1ccccc1)Cc1ccccc1 (stereo unspecified) | 13.7 µM (inactive) | 45.2 µM (inactive) | 32.2 µM (inactive) | 50.7 µM (inactive) | 30 µM (inactive) | > 100 µM (inactive) | 17.3 µM (inactive) | 36.3 µM (inactive) | 36.1 µM (inactive) | 22.9 µM (inactive) | > 100 µM (inactive) | 17.3 µM (inactive) | 54 µM (inactive) | > 100 µM (inactive) | 45.6 µM (inactive) | – | 40.1 µM (inactive) | 37.7 µM (inactive) | > 100 µM (inactive) | 78.2 µM (inactive) |
| CC(=O)Nc1ccc(S(=O)(=O)Nc2nc(-c3ccc(Cl)cc3)cc(N3N=C(c4ccc(Br)cc4)CC3c3ccccc3)n2)cc1 (stereo unspecified) | 12.6 µM (inactive) | 16.9 µM (inactive) | 16.6 µM (inactive) | 17.8 µM (inactive) | 24.5 µM (inactive) | 16 µM (inactive) | 14.4 µM (inactive) | 7.21 µM (inactive) | 13.6 µM (inactive) | 15.9 µM (inactive) | 14 µM (inactive) | 17 µM (inactive) | 15.8 µM (inactive) | 15 µM (inactive) | 20.4 µM (inactive) | – | 5.51 µM (inactive) | 18.6 µM (inactive) | 14.1 µM (inactive) | 13.7 µM (inactive) |
| CCCCc1ccc(Nc2nc3c(ncn3C3OC(COC(C)=O)C(OC(C)=O)C3OC(C)=O)c(=O)[nH]2)cc1 (stereo unspecified) | 19 µM (inactive) | 26.2 µM (inactive) | 17.4 µM (inactive) | 17.8 µM (inactive) | 65 µM (inactive) | 24.2 µM (inactive) | 17.1 µM (inactive) | 15.1 µM (inactive) | 36.7 µM (inactive) | 18.5 µM (inactive) | 45.3 µM (inactive) | 18.7 µM (inactive) | 27 µM (inactive) | 21.9 µM (inactive) | 25.1 µM (inactive) | > 100 µM (inactive) | 19.5 µM (inactive) | – | 17.6 µM (inactive) | 16.1 µM (inactive) |
| COc1cc(Oc2nc3cc(F)c(F)cc3nc2-c2ccccc2)cc(OC)c1OC | 25.8 µM (inactive) | 26.8 µM (inactive) | > 100 µM (inactive) | > 100 µM (inactive) | 43.5 µM (inactive) | > 100 µM (inactive) | > 100 µM (inactive) | – | 97.7 µM (inactive) | 81.8 µM (inactive) | 68.2 µM (inactive) | > 100 µM (inactive) | > 100 µM (inactive) | 79.3 µM (inactive) | > 100 µM (inactive) | 46 µM (inactive) | > 100 µM (inactive) | > 100 µM (inactive) | > 100 µM (inactive) | > 100 µM (inactive) |
| O=[N+]([O-])C(=C(Nc1ccccc1)Nc1ccccc1)/C(Cl)=C(\Cl)[N+](=O)[O-] | 4.58 µM (inactive) | 1.84 µM (inactive) | 3.04 µM (inactive) | 3.71 µM (inactive) | 2.61 µM (inactive) | 2.48 µM (inactive) | 2.73 µM (inactive) | 3.41 µM (inactive) | 5.62 µM (inactive) | 2.92 µM (inactive) | 5.16 µM (inactive) | 2.43 µM (inactive) | 20.3 µM (inactive) | 6.62 µM (inactive) | 2.19 µM (inactive) | 1.61 µM (inactive) | 2.77 µM (inactive) | 3.62 µM (inactive) | 2.67 µM (inactive) | – |
| CC1(CCCC2(C)CCNC2=O)OCCO1 (stereo unspecified) | > 10 µM (inactive) | > 10 µM (inactive) | > 10 µM (inactive) | > 10 µM (inactive) | > 10 µM (inactive) | > 10 µM (inactive) | > 10 µM (inactive) | > 10 µM (inactive) | > 10 µM (inactive) | > 10 µM (inactive) | > 10 µM (inactive) | > 10 µM (inactive) | > 10 µM (inactive) | > 10 µM (inactive) | > 10 µM (inactive) | > 10 µM (inactive) | > 10 µM (inactive) | > 10 µM (inactive) | > 10 µM (inactive) | – |
| COC(=O)C1CCCN1C(=O)C(Cc1cn(S(=O)(=O)c2ccc(C)cc2)cn1)NC(=O)OC(C)(C)C (stereo unspecified) | > 100 µM (inactive) | – | > 100 µM (inactive) | > 100 µM (inactive) | > 100 µM (inactive) | > 100 µM (inactive) | > 100 µM (inactive) | > 100 µM (inactive) | > 100 µM (inactive) | – | > 100 µM (inactive) | > 100 µM (inactive) | – | – | > 100 µM (inactive) | – | > 100 µM (inactive) | > 100 µM (inactive) | > 10 µM (inactive) | > 100 µM (inactive) |
| COc1ccc(/C=C2\CN(C)Cc3c2nc(O)c(C#N)c3-c2ccc(OC)cc2)cc1 | > 100 µM (inactive) | – | > 100 µM (inactive) | > 100 µM (inactive) | > 100 µM (inactive) | 42.5 µM (inactive) | 60.7 µM (inactive) | 57.5 µM (inactive) | > 100 µM (inactive) | 92.7 µM (inactive) | 43.4 µM (inactive) | 42 µM (inactive) | 38.1 µM (inactive) | 37.1 µM (inactive) | > 100 µM (inactive) | > 100 µM (inactive) | 47.2 µM (inactive) | > 100 µM (inactive) | 66.1 µM (inactive) | 25.2 µM (inactive) |
| CC[C@]1(O)C[C@H]2CN(CCc3c([nH]c4ccccc34)[C@@](C(=O)OC)(c3cc4c(cc3OC)N(C)[C@H]3[C@@](O)(C(=O)OC)[C@H](OC(C)=O)[C@]5(CC)C=CCN6CC[C@]43[C@@H]65)C2)C1 | 0.000373 µM (active) | 0.000605 µM (active) | 0.000678 µM (active) | 0.00126 µM (active) | 0.00849 µM (active) | 0.00132 µM (active) | 0.000481 µM (active) | 0.000508 µM (active) | 0.0259 µM (active) | 0.000538 µM (active) | – | 0.000736 µM (active) | 0.000867 µM (active) | 0.136 µM (active) | 0.000564 µM (active) | 0.00706 µM (active) | 0.000476 µM (active) | 0.00165 µM (active) | 0.000435 µM (active) | 0.00227 µM (active) |
